The text below walks through data of ChEMBL document CHEMBL5291721, “A preclinical secondary pharmacology resource illuminates target-adverse drug reaction associations of marketed drugs” (Nat Commun, 2023).

The target of experiment [1] is Voltage-dependent L-type calcium channel subunit alpha-1C (Rattus norvegicus, UniProt P22002). It is filed as functional.
Another experiment concerns the target D(1A) dopamine receptor (Homo sapiens, UniProt P21728).
The target of experiment [2] is T1, Alpha-1A adrenergic receptor (Homo sapiens, UniProt P35348).
T1 sequence (P35348 whole entry): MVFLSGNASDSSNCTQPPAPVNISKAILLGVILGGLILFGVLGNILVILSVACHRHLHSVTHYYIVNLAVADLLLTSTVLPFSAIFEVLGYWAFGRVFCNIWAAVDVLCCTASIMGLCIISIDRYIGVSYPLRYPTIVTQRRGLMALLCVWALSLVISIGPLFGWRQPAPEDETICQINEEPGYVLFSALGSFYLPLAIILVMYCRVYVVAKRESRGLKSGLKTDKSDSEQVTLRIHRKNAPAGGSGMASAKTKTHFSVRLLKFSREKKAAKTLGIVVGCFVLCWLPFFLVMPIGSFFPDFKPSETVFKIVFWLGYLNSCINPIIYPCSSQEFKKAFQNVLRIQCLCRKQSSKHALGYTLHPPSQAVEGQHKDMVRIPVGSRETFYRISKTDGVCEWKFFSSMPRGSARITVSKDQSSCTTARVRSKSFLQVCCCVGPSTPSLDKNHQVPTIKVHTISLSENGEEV

In experiment [3] the target is T2, Muscarinic acetylcholine receptor M2 (Homo sapiens, UniProt P08172).
T2 sequence (P08172 whole entry): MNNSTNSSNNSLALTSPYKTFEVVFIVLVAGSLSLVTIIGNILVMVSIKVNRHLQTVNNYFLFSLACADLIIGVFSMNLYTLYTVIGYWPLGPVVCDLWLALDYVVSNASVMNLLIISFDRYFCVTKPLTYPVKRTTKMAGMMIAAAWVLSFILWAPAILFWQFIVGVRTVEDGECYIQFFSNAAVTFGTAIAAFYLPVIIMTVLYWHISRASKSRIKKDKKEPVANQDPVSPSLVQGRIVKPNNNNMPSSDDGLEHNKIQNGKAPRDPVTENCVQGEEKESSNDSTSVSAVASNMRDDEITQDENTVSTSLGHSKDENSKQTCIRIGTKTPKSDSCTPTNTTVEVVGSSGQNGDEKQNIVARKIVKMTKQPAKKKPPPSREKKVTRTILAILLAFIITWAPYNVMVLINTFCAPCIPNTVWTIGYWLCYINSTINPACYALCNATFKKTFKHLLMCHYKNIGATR

Experiment [4] deals with T1, Alpha-1A adrenergic receptor. It is filed as functional, cell-based.
The target of experiment [5] is Beta-2 adrenergic receptor (Homo sapiens, UniProt P07550).
Sequence of Beta-2 adrenergic receptor (P07550 whole entry): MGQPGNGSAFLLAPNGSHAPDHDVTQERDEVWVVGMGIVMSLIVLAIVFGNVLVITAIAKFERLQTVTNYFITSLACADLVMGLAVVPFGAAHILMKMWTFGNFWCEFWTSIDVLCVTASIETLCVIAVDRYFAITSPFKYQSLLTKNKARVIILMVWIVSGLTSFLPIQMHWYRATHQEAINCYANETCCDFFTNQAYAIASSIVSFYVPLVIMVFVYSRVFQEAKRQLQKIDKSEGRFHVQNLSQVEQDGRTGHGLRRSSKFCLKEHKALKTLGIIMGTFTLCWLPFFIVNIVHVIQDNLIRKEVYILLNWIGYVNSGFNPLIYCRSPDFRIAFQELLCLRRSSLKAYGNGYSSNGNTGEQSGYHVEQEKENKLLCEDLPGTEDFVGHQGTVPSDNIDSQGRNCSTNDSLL
For another experiment, the target named is Cannabinoid receptor 1 (Homo sapiens, UniProt P21554). It is filed as functional, cell-based.
Sequence of Cannabinoid receptor 1 (P21554 whole entry): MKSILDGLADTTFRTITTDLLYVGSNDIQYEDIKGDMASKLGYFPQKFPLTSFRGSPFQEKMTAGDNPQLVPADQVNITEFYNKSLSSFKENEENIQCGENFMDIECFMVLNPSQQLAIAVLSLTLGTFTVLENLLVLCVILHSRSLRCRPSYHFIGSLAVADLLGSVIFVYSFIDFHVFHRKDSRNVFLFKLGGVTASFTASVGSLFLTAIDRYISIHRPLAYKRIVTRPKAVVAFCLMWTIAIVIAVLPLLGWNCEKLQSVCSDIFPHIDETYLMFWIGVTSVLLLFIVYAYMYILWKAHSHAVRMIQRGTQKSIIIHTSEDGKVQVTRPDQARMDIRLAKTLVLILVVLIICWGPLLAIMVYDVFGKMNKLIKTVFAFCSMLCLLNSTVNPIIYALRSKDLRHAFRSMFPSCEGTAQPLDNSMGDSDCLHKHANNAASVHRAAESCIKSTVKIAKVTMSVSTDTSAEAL
Experiment [6] addresses T3, Neuropeptide Y receptor type 1 (Homo sapiens, UniProt P25929).
T3 sequence (P25929 whole entry): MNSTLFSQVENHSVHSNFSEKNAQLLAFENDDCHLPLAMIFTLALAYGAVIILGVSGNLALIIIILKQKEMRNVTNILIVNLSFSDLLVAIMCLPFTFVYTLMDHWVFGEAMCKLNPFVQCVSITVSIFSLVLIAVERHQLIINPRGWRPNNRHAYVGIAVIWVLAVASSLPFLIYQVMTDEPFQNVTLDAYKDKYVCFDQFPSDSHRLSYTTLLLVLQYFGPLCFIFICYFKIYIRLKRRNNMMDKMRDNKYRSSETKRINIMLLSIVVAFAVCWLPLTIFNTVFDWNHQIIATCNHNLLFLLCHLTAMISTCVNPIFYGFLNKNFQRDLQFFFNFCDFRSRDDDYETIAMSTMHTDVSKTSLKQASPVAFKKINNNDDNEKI

For experiment [7], the target named is T4, Histamine H3 receptor (Homo sapiens, UniProt Q9Y5N1).
T4 sequence (Q9Y5N1 whole entry): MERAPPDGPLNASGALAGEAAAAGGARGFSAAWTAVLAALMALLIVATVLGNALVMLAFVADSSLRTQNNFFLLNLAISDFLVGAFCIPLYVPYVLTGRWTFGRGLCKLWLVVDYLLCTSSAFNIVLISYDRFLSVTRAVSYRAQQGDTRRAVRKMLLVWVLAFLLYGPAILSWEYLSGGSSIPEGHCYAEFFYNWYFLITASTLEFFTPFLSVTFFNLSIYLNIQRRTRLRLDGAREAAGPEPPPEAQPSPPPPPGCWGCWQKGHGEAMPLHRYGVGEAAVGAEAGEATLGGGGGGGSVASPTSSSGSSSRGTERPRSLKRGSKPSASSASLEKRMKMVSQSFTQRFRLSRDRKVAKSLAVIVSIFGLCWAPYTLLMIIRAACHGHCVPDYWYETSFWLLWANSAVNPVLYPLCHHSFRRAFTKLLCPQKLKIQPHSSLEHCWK
The target of experiment [8] is 5-hydroxytryptamine receptor 2B (Homo sapiens, UniProt P41595). Format: functional, cell-based.
Sequence of 5-hydroxytryptamine receptor 2B (P41595 whole entry): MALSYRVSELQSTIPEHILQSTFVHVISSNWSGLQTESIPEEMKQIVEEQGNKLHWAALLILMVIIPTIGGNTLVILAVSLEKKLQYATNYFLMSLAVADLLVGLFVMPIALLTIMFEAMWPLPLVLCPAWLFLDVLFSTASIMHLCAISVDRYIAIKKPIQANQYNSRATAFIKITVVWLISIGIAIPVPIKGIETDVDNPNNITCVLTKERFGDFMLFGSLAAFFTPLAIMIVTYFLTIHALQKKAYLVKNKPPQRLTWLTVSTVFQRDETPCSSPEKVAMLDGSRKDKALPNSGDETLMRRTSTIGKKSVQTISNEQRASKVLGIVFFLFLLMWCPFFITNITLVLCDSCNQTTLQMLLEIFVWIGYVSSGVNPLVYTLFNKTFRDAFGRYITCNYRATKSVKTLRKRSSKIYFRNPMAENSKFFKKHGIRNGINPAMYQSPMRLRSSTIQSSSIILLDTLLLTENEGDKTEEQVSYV
The target in experiment [9] is T5, Prostaglandin G/H synthase 1 (Homo sapiens, UniProt P23219). Format: functional.
T5 sequence (P23219 whole entry): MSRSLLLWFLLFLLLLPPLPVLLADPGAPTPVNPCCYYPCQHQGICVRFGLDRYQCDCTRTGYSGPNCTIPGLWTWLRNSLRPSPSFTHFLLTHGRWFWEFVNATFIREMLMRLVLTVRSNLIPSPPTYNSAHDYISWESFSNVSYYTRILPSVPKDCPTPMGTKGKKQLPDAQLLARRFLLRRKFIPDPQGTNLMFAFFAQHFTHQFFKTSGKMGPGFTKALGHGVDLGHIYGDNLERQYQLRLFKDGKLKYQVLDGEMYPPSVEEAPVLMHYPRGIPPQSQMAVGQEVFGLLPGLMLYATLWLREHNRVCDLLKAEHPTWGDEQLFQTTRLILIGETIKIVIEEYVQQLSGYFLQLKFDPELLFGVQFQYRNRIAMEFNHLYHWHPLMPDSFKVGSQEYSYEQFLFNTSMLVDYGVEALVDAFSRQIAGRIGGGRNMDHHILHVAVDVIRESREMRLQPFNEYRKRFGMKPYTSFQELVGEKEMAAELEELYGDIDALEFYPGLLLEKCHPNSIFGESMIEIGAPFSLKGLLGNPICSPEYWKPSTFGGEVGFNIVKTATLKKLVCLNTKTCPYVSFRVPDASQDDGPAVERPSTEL
In experiment [10] the target is T6, 5-hydroxytryptamine receptor 1A (Homo sapiens, UniProt P08908).
T6 sequence (P08908 whole entry): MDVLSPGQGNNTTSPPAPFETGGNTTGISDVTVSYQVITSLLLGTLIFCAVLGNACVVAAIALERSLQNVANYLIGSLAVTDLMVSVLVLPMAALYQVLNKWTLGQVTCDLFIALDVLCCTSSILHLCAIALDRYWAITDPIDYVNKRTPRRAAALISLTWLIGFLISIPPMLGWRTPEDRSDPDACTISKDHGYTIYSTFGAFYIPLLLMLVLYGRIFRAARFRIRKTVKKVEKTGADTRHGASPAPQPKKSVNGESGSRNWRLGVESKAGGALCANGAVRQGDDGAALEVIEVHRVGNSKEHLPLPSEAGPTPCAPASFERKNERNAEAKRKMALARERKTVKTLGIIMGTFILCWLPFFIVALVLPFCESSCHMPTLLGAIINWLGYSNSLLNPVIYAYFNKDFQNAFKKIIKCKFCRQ

Experiment [11] deals with T7, Amine oxidase [flavin-containing] A (Homo sapiens, UniProt P21397).
T7 sequence (P21397 whole entry): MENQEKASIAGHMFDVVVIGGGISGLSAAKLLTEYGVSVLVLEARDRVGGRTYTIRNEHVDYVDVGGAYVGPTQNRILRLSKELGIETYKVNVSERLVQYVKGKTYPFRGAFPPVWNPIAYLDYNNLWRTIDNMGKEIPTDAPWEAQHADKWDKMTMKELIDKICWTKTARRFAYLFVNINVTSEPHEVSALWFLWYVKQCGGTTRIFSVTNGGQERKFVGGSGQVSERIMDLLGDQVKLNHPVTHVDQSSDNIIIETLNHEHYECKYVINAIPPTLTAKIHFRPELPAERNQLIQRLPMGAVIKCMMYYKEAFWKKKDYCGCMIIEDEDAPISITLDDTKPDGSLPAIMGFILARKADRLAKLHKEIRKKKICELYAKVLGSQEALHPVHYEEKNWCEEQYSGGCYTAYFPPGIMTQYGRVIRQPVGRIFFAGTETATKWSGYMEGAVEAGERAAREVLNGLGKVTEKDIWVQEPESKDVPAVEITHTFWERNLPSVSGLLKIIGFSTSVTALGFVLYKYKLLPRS
Format: functional.

Experiment [12] deals with T5, Prostaglandin G/H synthase 1. Format: functional. The source holds these as a separate data set.
Experiment [13] deals with T4, Histamine H3 receptor. The source holds these as a separate data set.
Also: assay procedure not described here.

Sequence of Voltage-dependent L-type calcium channel subunit alpha-1C (P22002 whole entry): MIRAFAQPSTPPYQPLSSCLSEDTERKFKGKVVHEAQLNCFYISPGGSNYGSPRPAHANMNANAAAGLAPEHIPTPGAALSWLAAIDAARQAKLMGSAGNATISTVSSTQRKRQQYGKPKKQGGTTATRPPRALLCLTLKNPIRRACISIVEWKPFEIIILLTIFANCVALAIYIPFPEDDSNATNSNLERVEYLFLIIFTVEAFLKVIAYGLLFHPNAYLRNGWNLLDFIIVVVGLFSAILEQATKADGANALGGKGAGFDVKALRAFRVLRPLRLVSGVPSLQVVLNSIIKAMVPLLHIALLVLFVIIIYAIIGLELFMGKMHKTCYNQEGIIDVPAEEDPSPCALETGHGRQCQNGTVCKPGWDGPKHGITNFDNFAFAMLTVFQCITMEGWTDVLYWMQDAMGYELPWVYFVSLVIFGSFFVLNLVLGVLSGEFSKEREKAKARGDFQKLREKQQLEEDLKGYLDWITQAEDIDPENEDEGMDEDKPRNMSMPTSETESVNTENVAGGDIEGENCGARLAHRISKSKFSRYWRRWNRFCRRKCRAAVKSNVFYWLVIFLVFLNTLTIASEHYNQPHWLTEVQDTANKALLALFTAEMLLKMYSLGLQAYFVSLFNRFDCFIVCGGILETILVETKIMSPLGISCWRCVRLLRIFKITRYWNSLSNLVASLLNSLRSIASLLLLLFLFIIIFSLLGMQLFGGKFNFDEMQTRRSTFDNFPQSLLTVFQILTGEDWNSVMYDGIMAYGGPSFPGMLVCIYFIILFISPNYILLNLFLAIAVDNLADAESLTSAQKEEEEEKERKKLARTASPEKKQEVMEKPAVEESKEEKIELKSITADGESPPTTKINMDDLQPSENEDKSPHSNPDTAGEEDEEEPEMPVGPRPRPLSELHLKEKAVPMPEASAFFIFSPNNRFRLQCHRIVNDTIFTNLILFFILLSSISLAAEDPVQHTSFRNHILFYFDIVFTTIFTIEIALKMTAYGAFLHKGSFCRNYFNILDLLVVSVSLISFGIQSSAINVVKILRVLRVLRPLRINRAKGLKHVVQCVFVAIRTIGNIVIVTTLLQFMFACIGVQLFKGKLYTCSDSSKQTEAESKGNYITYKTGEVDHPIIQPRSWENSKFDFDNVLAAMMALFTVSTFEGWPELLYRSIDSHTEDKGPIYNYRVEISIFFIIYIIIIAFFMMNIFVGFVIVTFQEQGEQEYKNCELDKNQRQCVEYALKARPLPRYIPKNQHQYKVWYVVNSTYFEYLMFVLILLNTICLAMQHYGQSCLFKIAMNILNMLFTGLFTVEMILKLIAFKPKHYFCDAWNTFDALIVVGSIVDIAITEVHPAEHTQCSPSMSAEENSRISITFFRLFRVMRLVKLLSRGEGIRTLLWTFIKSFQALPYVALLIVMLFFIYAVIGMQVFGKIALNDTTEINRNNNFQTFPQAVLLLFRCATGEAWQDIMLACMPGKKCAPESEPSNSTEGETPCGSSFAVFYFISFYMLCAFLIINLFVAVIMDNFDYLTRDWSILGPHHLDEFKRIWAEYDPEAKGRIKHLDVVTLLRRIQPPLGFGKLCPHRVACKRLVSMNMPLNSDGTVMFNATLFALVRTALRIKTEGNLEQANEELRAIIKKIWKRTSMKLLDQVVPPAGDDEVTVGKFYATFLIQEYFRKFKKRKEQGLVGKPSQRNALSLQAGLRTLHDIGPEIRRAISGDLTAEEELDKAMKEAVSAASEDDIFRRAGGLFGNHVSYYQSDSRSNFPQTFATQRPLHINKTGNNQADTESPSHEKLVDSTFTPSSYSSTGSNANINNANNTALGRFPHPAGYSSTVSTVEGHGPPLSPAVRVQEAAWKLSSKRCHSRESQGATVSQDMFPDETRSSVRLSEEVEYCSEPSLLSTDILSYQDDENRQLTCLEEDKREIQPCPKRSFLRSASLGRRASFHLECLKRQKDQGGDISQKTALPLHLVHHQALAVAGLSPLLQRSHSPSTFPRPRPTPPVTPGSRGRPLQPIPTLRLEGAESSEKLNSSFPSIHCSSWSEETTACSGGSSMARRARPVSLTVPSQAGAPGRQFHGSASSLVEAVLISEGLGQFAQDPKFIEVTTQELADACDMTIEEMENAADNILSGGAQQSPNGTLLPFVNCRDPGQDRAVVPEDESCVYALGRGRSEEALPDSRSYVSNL
Sequence of D(1A) dopamine receptor (P21728 whole entry): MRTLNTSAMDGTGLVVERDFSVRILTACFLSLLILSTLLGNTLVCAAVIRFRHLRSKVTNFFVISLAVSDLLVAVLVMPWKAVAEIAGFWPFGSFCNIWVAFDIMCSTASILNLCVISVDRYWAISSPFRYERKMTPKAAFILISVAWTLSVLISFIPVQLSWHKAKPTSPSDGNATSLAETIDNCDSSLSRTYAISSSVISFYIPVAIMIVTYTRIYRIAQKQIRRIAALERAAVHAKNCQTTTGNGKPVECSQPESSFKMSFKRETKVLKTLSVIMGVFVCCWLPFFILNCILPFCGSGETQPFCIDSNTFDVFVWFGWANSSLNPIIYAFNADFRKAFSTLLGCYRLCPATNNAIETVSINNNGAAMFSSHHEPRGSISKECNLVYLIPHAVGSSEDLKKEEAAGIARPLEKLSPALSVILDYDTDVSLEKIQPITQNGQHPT

One may read the AC50 as the concentration at which the activity in the assay is half-maximal. Turning to `CO[C@H]1C[C@@H]2CC[C@@H](C)[C@@](O)(O2)C(=O)C(=O)N2CCCC[C@H]2C(=O)O[C@H]([C@H](C)C[C@@H]2CC[C@@H](O)[C@H](OC)C2)CC(=O)[C@H](C)/C=C(\C)[C@@H](O)[C@@H](OC)C(=O)[C@H](C)C[C@H](C)/C=C/C=C/C=C/1C` [SIROLIMUS], the AC50 in experiment [1] is more than 10 µM; on D(1A) dopamine receptor, more than 30 µM; in [2] it was 0.156 µM; in experiment [3] it was more than 30 µM; in [4], more than 30 µM; in [5] it was more than 10 µM. The AC50 was more than 30 µM on Cannabinoid receptor 1; more than 30 µM in [6]; more than 10 µM on Histamine H3 receptor [7]; more than 30 µM in [8]; 26.6 µM in experiment [9]; more than 30 µM in experiment [10]. For the same compound, the results for the half-maximal activity concentration (AC50) (in [11]; in experiment [12]; on Histamine H3 receptor [13]) were more than 30 µM, 23.3 µM and more than 30 µM, respectively.

In the case of `Cc1cn([C@H]2C=C[C@@H](CO)O2)c(=O)[nH]c1=O` [STAVUDINE], the AC50 in [1] is more than 10 µM; at D(1A) dopamine receptor it was more than 30 µM; in experiment [2], 29.9 µM; in experiment [3], more than 30 µM; in experiment [4], more than 30 µM; in [5] it was more than 10 µM. For the same compound, the AC50 (on Cannabinoid receptor 1; in [6]; on Histamine H3 receptor [7]; in experiment [8]; in experiment [9]; in experiment [10]) was more than 30 µM in each case. Moreover, the AC50 (in experiment [11]; in experiment [12]; on Histamine H3 receptor [13]) was more than 30 µM throughout.

With `NCC(CC(=O)O)c1ccc(Cl)cc1` (stereo not given) [BACLOFEN], the AC50 in experiment [1] is more than 10 µM; at D(1A) dopamine receptor, more than 30 µM; in [2], more than 10 µM; in [3], more than 30 µM; in [4], more than 30 µM; in experiment [5], more than 10 µM. Also, the half-maximal activity concentration (AC50) (on Cannabinoid receptor 1; in [6]; on Histamine H3 receptor [7]; in [8]; in experiment [9]; in experiment [10]) was more than 30 µM throughout. Also, the concentration at half-maximal activity (AC50) (in experiment [11]; in experiment [12]; at Histamine H3 receptor [13]) was more than 30 µM in each case.

As to `Cc1cn([C@H]2C[C@H](N=[N+]=[N-])[C@@H](CO)O2)c(=O)[nH]c1=O` [ZIDOVUDINE], the concentration at half-maximal activity (AC50) in experiment [1] was more than 10 µM; at D(1A) dopamine receptor, more than 30 µM; in [2], more than 10 µM; in [3], more than 30 µM; in experiment [4], more than 30 µM; in experiment [5], more than 10 µM. Also, the half-maximal activity concentration (AC50) on Cannabinoid receptor 1 was more than 30 µM; in experiment [6], more than 30 µM; on Histamine H3 receptor [7], more than 10 µM; in experiment [8], more than 30 µM; in experiment [9], more than 30 µM; in experiment [10] it was more than 30 µM. The AC50 (in experiment [11]; in experiment [12]; at Histamine H3 receptor [13]) was more than 30 µM each time.

Turning to `CS(=O)(=O)c1ccc(C2=C(c3ccccc3)C(=O)OC2)cc1` [ROFECOXIB], the AC50 in experiment [1] is more than 10 µM; at D(1A) dopamine receptor, more than 30 µM; in [2], more than 10 µM; in [3], more than 30 µM; in [4], more than 30 µM; in experiment [5], more than 10 µM. The AC50 at Cannabinoid receptor 1 was more than 30 µM; in experiment [6], more than 30 µM; at Histamine H3 receptor [7], more than 10 µM; in experiment [8] it was more than 30 µM; in experiment [10], more than 30 µM; in experiment [11], more than 30 µM. On Histamine H3 receptor [13], this compound came in with a half-maximal activity concentration (AC50) of more than 30 µM.

Consider `CC(C)C[C@H]1C(=O)N2CCC[C@H]2[C@]2(O)O[C@](NC(=O)[C@@H]3C=C4c5cccc6[nH]c(Br)c(c56)C[C@H]4N(C)C3)(C(C)C)C(=O)N12` [BROMOCRIPTINE], for which the AC50 in experiment [1] was more than 10 µM; at D(1A) dopamine receptor it was 2.37 µM; in experiment [2] it was 0.197 µM; in [3], 29.1 µM; in experiment [5] it was 8.4 µM; at Cannabinoid receptor 1, more than 30 µM. Besides, the AC50 is more than 30 µM in experiment [6]; more than 30 µM at Histamine H3 receptor [7]; more than 30 µM in [8]; 2.49 µM in [9]; 0.003 µM in experiment [10]; more than 30 µM in [11]. Besides, the AC50 was 4.61 µM in experiment [12] and more than 30 µM at Histamine H3 receptor [13].

For `Cc1cccc(Nc2ccccc2C(=O)O)c1C` [MEFENAMIC ACID], the AC50 in experiment [1] is more than 10 µM; at D(1A) dopamine receptor, more than 30 µM; in experiment [2] it was more than 10 µM; in experiment [3], more than 30 µM; in experiment [4], more than 30 µM; in experiment [5] it was more than 10 µM. Further, the half-maximal activity concentration (AC50) in experiment [6] is more than 10 µM; on Histamine H3 receptor [7] it was more than 10 µM; in [8] it was more than 30 µM; in experiment [9], 0.0343 µM; in experiment [10] it was more than 30 µM; in [11], more than 30 µM. Moreover, the AC50 in [12] is 0.0115 µM; at Histamine H3 receptor [13], more than 30 µM.

With `CC[C@H]1OC(=O)[C@H](C)[C@@H](O[C@H]2C[C@@](C)(OC)[C@@H](O)[C@H](C)O2)[C@H](C)[C@@H](O[C@@H]2O[C@H](C)C[C@H](N(C)C)[C@H]2O)[C@](C)(O)C[C@@H](C)CN(C)[C@H](C)[C@@H](O)[C@]1(C)O` [AZITHROMYCIN], the concentration at half-maximal activity (AC50) in [1] was more than 10 µM; on D(1A) dopamine receptor it was more than 30 µM; in experiment [2] it was more than 10 µM; in [3] it was more than 30 µM; in [4], more than 30 µM; on Cannabinoid receptor 1, more than 30 µM. In addition, the concentration at half-maximal activity (AC50) in experiment [6] was more than 30 µM; on Histamine H3 receptor [7], more than 10 µM; in [8], more than 30 µM; in experiment [9] it was more than 30 µM; in experiment [10], more than 30 µM; in experiment [11] it was more than 30 µM. Further, the half-maximal activity concentration (AC50) (in experiment [12]; on Histamine H3 receptor [13]) was more than 30 µM throughout.
